Laboratory results taken from patent US9839642B2, “Beta-tetrazolyl-propionic acids as metallo-beta-lactamase inhibitors” (priority 2014, dated 2017).
Read-outs that look alike come from different tables or passages of the source.

Legend:
IMP-1 = IMP-1 (Serratia marcescens, UniProt P52699); assay: Enzyme activity: determination of IC50, fluorescence assay with CCF2-FA substrate; type: biochemical; details: CCF2-FA 1.25 μM, 2 hours at 25° C., read-out: IMP1 IC50
How it was run: (§1)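 In pH 7 phosphate buffer (100 mM) with 10 μM ZnSO4 and 0.005% Tween-20, CCF2-FA substrate (1.25 μM final) was hydrolysed for 2 h at 25 °C by NDM-1, IMP-1 or VIM-1 at 1, 2 or 30 pM in the presence of inhibitor at 20–0.00063 μM. Emission 460 nm/excitation 405 nm; 4-parameter curve fit gave IC50.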

NDM-1 = NDM-1 (Klebsiella pneumoniae, UniProt C7C422); assay: as above; type: biochemical; details: CCF2-FA 1.25 μM, 2 hours at 25° C., read-out: NDM1 IC50
NDM-1, sequence (C7C422 29-270, looked up, species assumed): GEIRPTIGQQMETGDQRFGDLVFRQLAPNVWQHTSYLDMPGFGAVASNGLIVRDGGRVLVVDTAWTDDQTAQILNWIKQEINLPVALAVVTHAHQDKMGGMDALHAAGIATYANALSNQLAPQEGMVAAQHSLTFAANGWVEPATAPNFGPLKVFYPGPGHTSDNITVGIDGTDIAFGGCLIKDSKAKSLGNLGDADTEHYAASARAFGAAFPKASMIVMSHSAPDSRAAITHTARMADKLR
How it was run: as §1

VIM-1 = VIM-1 (Pseudomonas aeruginosa, UniProt A0A0F7KYQ8); assay: as above; type: biochemical; details: CCF2-FA 1.25 μM, 2 hours at 25° C., read-out: VIM1 IC50
How it was run: as §1

[1] = system: Escherichia coli expressing NDM-1 (CLB30016); assay: Antibiotic potentiation activity: synergistic concentration (MITC95) with imipenem, growth by OD600; type: cell-based
How it was run: (§2)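 MITC95 = lowest inhibitor concentration giving 95% growth inhibition, read by absorbance after 22–24 h at 35° C. Compound range 200 μM to 0.195 μM, imipenem fixed at 1 or 4 μg/ml, bacteria in 1.1×CAMHB from saline suspension diluted 1:100.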

[2] = system: Klebsiella pneumoniae expressing VIM-1 (IHMA599644); assay: as above; type: cell-based
How it was run: as §2

[3] = system: Serratia marcescens expressing IMP-1 (CL5741); assay: as above; type: cell-based
How it was run: as §2

[4] = E. coli CLB30016 (NDM-1), 95% inhibition of growth
[5] = K. pneumoniae IHMA599644 (VIM-1), 95% inhibition of growth
[6] = S. marcescens CL5741 (IMP-1), 95% inhibition of growth
[7] = 95% inhibition of bacterial growth, strain CLB30016
[8] = 95% inhibition of bacterial growth, strain IHMA599644
[9] = 95% inhibition of bacterial growth, strain CL5741

IMP-1, sequence (P52699 19-246, looked up, species assumed): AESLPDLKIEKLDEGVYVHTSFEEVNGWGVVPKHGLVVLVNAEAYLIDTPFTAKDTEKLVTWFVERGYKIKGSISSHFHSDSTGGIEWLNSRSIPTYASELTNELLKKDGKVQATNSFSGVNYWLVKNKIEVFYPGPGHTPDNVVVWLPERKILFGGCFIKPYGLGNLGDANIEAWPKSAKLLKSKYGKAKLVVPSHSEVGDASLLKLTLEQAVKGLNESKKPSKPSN

SMILES | IC50 (IMP-1; IMP-1 enzyme 2 pM) [nM] | IC50 (NDM-1; NDM-1 enzyme 1 pM) [nM] | IC50 (VIM-1; VIM-1 enzyme 30 pM) [nM] | NDM1 EC30016 MITC95 [1, 4] [µM] | VIM1 KP599644 MITC95 [2, 5] [µM] | IMP1 SM5741 MITC95 [3, 6] [µM] | IC50 (IMP-1; enzyme 2 pM) [nM] | IC50 (NDM-1; enzyme 1 pM) [nM] | IC50 (VIM-1; enzyme 30 pM) [nM] | NDM1 EC30016 MITC95 [1, 7] [µM] | VIM1 KP599644 MITC95 [2, 8] [µM] | IMP1 SM5741 MITC95 [3, 9] [µM]
CC(C)C[C@H](C(=O)O)[C@H](Cc1ccc(Oc2ccccc2C2CCCN2)nc1)c1nn[nH]n1 (stereo partly drawn) [Example 374, (2S)-4-methyl-2-[(1S)-2-[6-(2-pyrrolidin-2-ylphenoxy)pyridin-3-yl]-1-(2H-tetrazol-5-yl)ethyl]pentanoic acid] | 90 | 12 | 3 | 9.4 | 62 | 9.4 | – | – | – | – | – | –
CCC[C@H](C(=O)O)[C@H](Cc1ccccc1C(N)=O)c1nnn[nH]1 [Example 47, (2S)-2-[(1S)-2-(2-carbamoylphenyl)-1-(1H-tetrazol-5-yl)ethyl]pentanoic acid] | – | – | – | – | – | – | 7200 | 120 | 73 | 9.4 | 37.5 | 200
CC(C)C[C@H](C(=O)O)[C@H](Cc1ccc(Oc2ccc(CN)cc2)nc1)c1nn[nH]n1 [Example 390, (2S)-2-[(1S)-2-{6-[4-(aminomethyl)phenoxy]pyridin-3-yl}-1-(2H-tetrazol-5-yl)ethyl]-4-methylpentanoic acid] | 240 | 35 | 5.3 | 1.6 | 25 | 12.5 | – | – | – | – | – | –
CCC[C@H](C(=O)O)[C@H](Cc1ccc(C2CCN(C(=N)N)CC2)cc1)c1nnn[nH]1 [Example 296, (S)-2-((S)-2-(4-(1-carbamimidoylpiperidin-4-yl)phenyl)-1-(1H-tetrazol-5-yl)ethyl)pentanoic acid] | 180 | 32 | 21 | 4.7 | 12.5 | 6.2 | – | – | – | – | – | –
CC(C)C[C@H](C(=O)O)[C@H](Cc1ccc(C2CCNCC2)nc1)c1nnn[nH]1 [Example 103, (S)-4-methyl-2-((S)-2-(6-(piperidin-4-yl)pyridin-3-yl)-1-(1H-tetrazol-5-yl)ethyl)pentanoic acid] | – | – | – | – | – | – | 960 | 150 | 3.4 | 6.2 | 18.8 | 18.8
CCC[C@H](C(=O)O)[C@H](Cc1ccc(C2CCN(C=N)C2)nc1)c1nnn[nH]1 (stereo partly drawn) [Example 410, (2S)-2-((1S)-2-(6-(1-(iminomethyl)pyrrolidin-3-yl)pyridin-3-yl)-1-(1H-tetrazol-5-yl)ethyl)pentanoic acid] | 6030 | 417 | 6.23 | 7.813 | 25 | 75 | – | – | – | – | – | –
CC(C)C[C@H](C(=O)O)[C@H](Cc1ccc(C2=CCNC2)nc1)c1nn[nH]n1 [Example 181, (2S)-2-[(1S)-2-[6-(2,5-dihydro-1H-pyrrol-3-yl)pyridin-3-yl]-1-(2H-tetrazol-5-yl)ethyl]-4-methylpentanoic acid] | – | – | – | – | – | – | 4400 | 1000 | 17 | 38 | 75 | 100
CC(C)C[C@H](C(=O)O)[C@H](Cc1ccc(N2CCC(CNS(C)(=O)=O)CC2)nc1)c1nnn[nH]1 [Example 312, (2S)-4-methyl-2-[(1S)-2-[6-(4-{[(methylsulfonyl)amino]methyl}piperidin-1-yl)pyridin-3-yl]-1-(1H-tetrazol-5-yl)ethyl]pentanoic acid] | 250 | 42 | 48 | 9.4 | 150 | 31 | – | – | – | – | – | –
CC(C)C[C@H](C(=O)O)[C@H](Cc1ccc(N2CCC(CO)CC2)nc1)c1nnn[nH]1 [Example 314, (2S)-2-[(1S)-2-{6-[4-(hydroxymethyl)piperidin-1-yl]pyridin-3-yl}-1-(1H-tetrazol-5-yl)ethyl]-4-methylpentanoic acid] | 190 | 49 | 16 | 6.2 | 75 | 12.5 | – | – | – | – | – | –
CC(C)C[C@H](C(=O)O)[C@H](Cc1ccc(N[C@@H]2CC[C@H](N)C2)nc1)c1nnn[nH]1 [Example 316, (2S)-2-[(1S)-2-(6-{[(1R,3S)-3-aminocyclopentyl]amino}pyridin-3-yl)-1-(1H-tetrazol-5-yl)ethyl]-4-methylpentanoic acid] | 1200 | 450 | 22 | 1.6 | 12.5 | 12.5 | – | – | – | – | – | –
CC(C)C[C@H](C(=O)O)[C@H](Cc1ccc(N2CCC(CN)C2)nc1)c1nnn[nH]1 (stereo partly drawn) [Example 306, (2S)-2-[(1S)-2-{6-[3-(aminomethyl)pyrrolidin-1-yl]pyridin-3-yl}-1-(1H-tetrazol-5-yl)ethyl]-4-methylpentanoic acid] | 2700 | 670 | 13 | 3.1 | 12.5 | 25 | – | – | – | – | – | –
CCC[C@H](C(=O)O)[C@H](Cc1cnc(OC2CCNCC2)nc1)c1nnn[nH]1 [Example 289, (S)-2-((S)-2-(2-(piperidin-4-yloxy)pyrimidin-5-yl)-1-(1H-tetrazol-5-yl)ethyl)pentanoic acid] | > 20000 | 3100 | 6.8 | 25 | 38 | >200 | – | – | – | – | – | –
CCC[C@H](C(=O)O)C(Cc1ccccc1C(F)(F)F)c1nnn[nH]1 (stereo in doubt) [Example 268, (2S)-2-{(1S)-1-(1H-tetrazol-5-yl)-2-[2-(trifluoromethyl)phenyl]ethyl}pentanoic acid] | 2700 | 6.4 | 3.2 | 7.8 | 12.5 | 75 | – | – | – | – | – | –
CCC[C@H](C(=O)O)[C@@H](Cc1ccc(-c2ccc3c(c2)OCC(=O)N3)cn1)c1nnn[nH]1 [Example 182, (2S)-2-[(1R)-2-[5-(3-oxo-3,4-dihydro-2H-1,4-benzoxazin-7-yl)pyridin-2-yl]-1-(1H-tetrazol-5-yl)ethyl]pentanoic acid] | – | – | – | – | – | – | 16000 | 1000 | 330 | 150 | >200 | >200
CC(C)C[C@H](C(=O)O)[C@H](Cc1ccc(N2CCCC2CO)nc1)c1nnn[nH]1 (stereo partly drawn) [Example 315, (2S)-2-[(1S)-2-{6-[2-(hydroxymethyl)pyrrolidin-1-yl]pyridin-3-yl}-1-(1H-tetrazol-5-yl)ethyl]-4-methylpentanoic acid] | 61 | 67 | 6 | 3.1 | 38 | 6.2 | – | – | – | – | – | –
CC(C)[C@H](C(=O)O)[C@H](Cc1cccc(Br)n1)c1nnn[nH]1 [Example 92] | – | – | – | – | – | – | 5500 | 110 | 28 | 9.4 | 25 | 100
CCC[C@H](C(=O)O)[C@H](Cc1ccc(C2CCNCC2)cc1)c1nnn[nH]1 [Example 412, (S)-2-((S)-2-(4-(piperidin-4-yl)phenyl)-1-(1H-tetrazol-5-yl)ethyl)pentanoic acid] | 275 | 71.4 | 4.49 | 9.375 | 12.5 | 9.375 | – | – | – | – | – | –
CC(C)[C@H](C(=O)O)[C@H](Cc1ccc(OCC(N)CO)nc1)c1nnn[nH]1 (stereo partly drawn) [Example 142, (2S,3S)-4-(6-(2-amino-3-hydroxypropoxy)pyridin-3-yl)-2-isopropyl-3-(1H-tetrazol-5-yl)butanoic acid] | – | – | – | – | – | – | 5000 | 340 | 130 | 3.1 | 25 | 50
CCC[C@H](C(=O)[O-])[C@H](Cc1ccc(C2=CC[N+](C)(C)CC2)cc1)c1nnn[nH]1 [Example 295, (S)-2-((S)-2-(4-(1,1-dimethyl-1,2,3,6-tetrahydropyridin-1-ium-4-yl)phenyl)-1-(1H-tetrazol-5-yl)ethyl)pentanoate] | 1100 | 440 | 1600 | 12.5 | 25 | 12.5 | – | – | – | – | – | –
